Experimental data taken from BindingDB's records for doi:10.1021/jm0700924 (Astex Therapeutics, 2007).

How the values were obtained:
[1] = biological target: RAC-beta serine/threonine-protein kinase (Homo sapiens, UniProt P31751); assay: PKB In Vitro Enzyme Assay; details: pH 7.2; 22 °C
[2] = biological target: cAMP-dependent protein kinase catalytic subunit alpha (Bos taurus, UniProt P00517); assay: PKA In Vitro Enzyme Assay; details: pH 7.2; 22 °C

Chain of RAC-beta serine/threonine-protein kinase (P31751 whole entry): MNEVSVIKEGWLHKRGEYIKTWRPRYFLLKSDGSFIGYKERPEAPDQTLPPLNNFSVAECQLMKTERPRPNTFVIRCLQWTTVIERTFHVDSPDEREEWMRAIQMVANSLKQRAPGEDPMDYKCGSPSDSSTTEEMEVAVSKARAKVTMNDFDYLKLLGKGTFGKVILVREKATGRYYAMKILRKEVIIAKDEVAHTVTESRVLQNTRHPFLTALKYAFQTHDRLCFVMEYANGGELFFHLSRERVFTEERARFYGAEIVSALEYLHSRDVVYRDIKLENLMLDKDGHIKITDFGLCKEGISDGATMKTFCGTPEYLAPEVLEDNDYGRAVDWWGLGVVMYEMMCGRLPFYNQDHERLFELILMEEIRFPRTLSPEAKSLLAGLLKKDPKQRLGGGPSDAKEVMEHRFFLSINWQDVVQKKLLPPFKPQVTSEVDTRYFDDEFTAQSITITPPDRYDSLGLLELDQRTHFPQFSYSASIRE

- IC50 [1]: 10 nM
- IC50 [2]: 15 nM
Structure (SMILES): CNCC(c1ccc(Cl)cc1)c1ccc(-c2ncnc3nc[nH]c23)cc1 (configuration not stated) [[2-(4-chlorophenyl)-2-[4-(9H-purin-6-yl)phenyl]ethyl](methyl)amine]
